# Test results taken from ChEMBL document CHEMBL5154648, “Antitumor activity of novel POLA1-HDAC11 dual inhibitors” (Eur J Med Chem, 2022).
# Calls of active or inactive are those of the source. The rule behind the calls is not given here.
# What was measured:
# MM473 [1] = assay: Induction of cell cycle arrest in human MM473-Luc cells assessed as accumulation of cells at G2/M phase at 1.2 uM after 72 hrs by flow cytometry (reference value: 11.7%); assay type: functional
# A2780 [2] = assay: Induction of cell cycle arrest in human A2780 cells assessed as accumulation of cells at S phase at 0.6 uM after 72 hrs by flow cytometry (reference value: 36.3%); assay type: functional
# [3] = biological target: T1, Histone deacetylase 11 (Homo sapiens) (UniProt Q96DB2); assay: Inhibition of HDAC11 in human MM487 cells at 0.1 to 0.4 uM assessed as induction of p53 acetylation and measured by Western blot analysis; assay type: cell-based; details: dose 0.1-0.4 µM
# T1 sequence (whole entry): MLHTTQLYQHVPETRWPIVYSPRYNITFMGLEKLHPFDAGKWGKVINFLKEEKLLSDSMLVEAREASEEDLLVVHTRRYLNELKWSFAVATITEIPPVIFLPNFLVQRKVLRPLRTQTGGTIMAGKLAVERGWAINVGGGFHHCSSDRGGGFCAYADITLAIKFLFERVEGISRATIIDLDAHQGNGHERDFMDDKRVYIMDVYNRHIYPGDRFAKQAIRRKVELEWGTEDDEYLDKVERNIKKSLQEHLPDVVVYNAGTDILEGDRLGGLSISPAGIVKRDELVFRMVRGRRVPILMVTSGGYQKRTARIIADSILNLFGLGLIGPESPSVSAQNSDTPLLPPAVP
# [4] = Induction of cell cycle arrest in human H460-R9A cells assessed as accumulation of cells at G0/1 phase at 2.8 uM after 72 hrs by flow cytometry (reference value: 50.1%); assay type: functional
# NCI-H460 [5] = assay: Antitumor activity against human NCI-H460 cells xenografted in mouse assessed as tumor growth inhibition at 50 mg/kg, po qd administered 5 times a week for 3 to 4 weeks; assay type: functional; details: time 3-4 weeks, read-out: TGI
# [6] = Toxicity in mouse xenografted with human H460-R9A cells assessed as body weight loss at 50 mg/kg, po qd administered 5 times a week for 3 to 4 weeks; assay type: organism-based; details: in vivo, time 3-4 weeks
# A2780 [7] = assay: Induction of cell cycle arrest in human A2780 cells assessed as accumulation of cells at sub-G1 phase at 0.6 uM after 72 hrs by flow cytometry (reference value: 1.6%); assay type: functional
# NCI-H460 [8] = assay: Down-regulation of POLA1 mRNA expression in human NCI-H460 cells at 0.25 uM measured by qRT-PCR assay; assay type: functional, cell-based
# Mus musculus = assay: Inhibition of POLA1 in mouse B16 cells xenografted C57BL/6 mouse assessed as increase in IFN-alpha levels at 50 mg/kg, po administered twice a day for 5 days measured by ELISA assay; assay type: functional, organism-based; details: time 5.0 day
# MM473 [9] = assay: Induction of DNA damage in human MM473 cells at 0.1 to 0.4 uM assessed as increase in p-H2AX levels and measured by Western blot analysis; assay type: functional, cell-based; details: dose 0.1-0.4 µM
# [10] = biological target: T1, Histone deacetylase 11 (Homo sapiens); assay: Inhibition of HDAC11 in human MM473 cells at 0.1 to 0.4 uM assessed as induction of p53 acetylation and measured by Western blot analysis; assay type: cell-based; details: dose 0.1-0.4 µM
# NCI-H460 [11] = assay: Induction of cell cycle arrest in human NCI-H460 cells assessed as accumulation of cells at G0/1 phase at 0.25 uM after 72 hrs by flow cytometry (reference value: 46.8%); assay type: functional
# MM473 [12] = assay: Induction of cell cycle arrest in human MM473-Luc cells assessed as accumulation of cells at S phase at 1.2 uM after 72 hrs by flow cytometry (reference value: 13.7%); assay type: functional
# [13] = Induction of cell cycle arrest in human H460-R9A cells assessed as accumulation of cells at sub-G1 phase at 2.8 uM after 72 hrs by flow cytometry (reference value: 1.5%); assay type: functional
# NCI-H460 [14] = assay: Induction of cell cycle arrest in human NCI-H460 cells assessed as accumulation of cells at G2/M phase at 0.26 uM after 72 hrs by flow cytometry (reference value: 21.1%); assay type: functional
# NCI-H460 [15] = assay: Induction of cell cycle arrest in human NCI-H460 cells assessed as accumulation of cells at G0/1 phase at 0.26 uM after 72 hrs by flow cytometry (reference value: 46.8%); assay type: functional
# A2780 [16] = assay: Induction of cell cycle arrest in human A2780 cells assessed as accumulation of cells at sub-G1 phase at 0.95 uM after 72 hrs by flow cytometry (reference value: 1.6%); assay type: functional
# MM473 [17] = assay: Induction of cell cycle arrest in human MM473-Luc cells assessed as accumulation of cells at sub-G1 phase at 1.4 uM after 72 hrs by flow cytometry (reference value: 1.3%); assay type: functional
# NCI-H460 [18] = assay: Down-regulation of POLA1 mRNA expression in human NCI-H460 cells at 0.26 uM measured by qRT-PCR assay; assay type: functional, cell-based
# A2780 [19] = assay: Induction of DNA damage in human A2780 cells at 0.1 to 0.4 uM assessed as increase in p-H2AX levels and measured by Western blot analysis; assay type: functional, cell-based; details: dose 0.1-0.4 µM
# [20] = biological target: T1, Histone deacetylase 11 (Homo sapiens); assay: Inhibition of HDAC11 in human A2780 cells at 0.1 to 0.4 uM assessed as increase in p21 level and measured by Western blot analysis; assay type: cell-based; details: dose 0.1-0.4 µM
# NCI-H460 [21] = assay: Induction of cell cycle arrest in human NCI-H460 cells assessed as accumulation of cells at sub-G1 phase at 0.26 uM after 72 hrs by flow cytometry (reference value: 1.1%); assay type: functional
# A2780 [22] = assay: Induction of cell cycle arrest in human A2780 cells assessed as accumulation of cells at S phase at 0.95 uM after 72 hrs by flow cytometry (reference value: 36.3%); assay type: functional
# NCI-H460 [23] = assay: Induction of cell cycle arrest in human NCI-H460 cells assessed as accumulation of cells at G2/M phase at 0.12 uM after 72 hrs by flow cytometry (reference value: 21.1%); assay type: functional
# [24] = Induction of cell cycle arrest in human H460-R9A cells assessed as accumulation of cells at S phase at 2.2 uM after 72 hrs by flow cytometry (reference value: 34.5%); assay type: functional
# [25] = Induction of cell cycle arrest in human H460-R9A cells assessed as accumulation of cells at G2/M phase at 2.2 uM after 72 hrs by flow cytometry (reference value: 15.4%); assay type: functional
# [26] = Antitumor activity against human H460-R9A cells xenografted in mouse assessed as tumor growth inhibition at 20 mg/kg, po qd administered […] for 3 to 4 weeks; assay type: functional; details: time 3-4 weeks, read-out: TGI
# NCI-H460 [27] = assay: Antitumor activity against human NCI-H460 cells xenografted in mouse assessed as tumor growth inhibition at 20 mg/kg, po qd administered […] for 3 to 4 weeks; assay type: functional; details: time 3-4 weeks, read-out: TGI
# [28] = Toxicity in mouse xenografted with human NCI-H460 cells assessed as body weight loss at 20 mg/kg, po qd administered 5 times a week for 3 to 4 weeks; assay type: organism-based; details: in vivo, time 3-4 weeks
# NCI-H460 [29] = assay: Induction of cell cycle arrest in human NCI-H460 cells assessed as accumulation of cells at S phase at 0.12 uM after 72 hrs by flow cytometry (reference value: 32.1%); assay type: functional
# NCI-H460 [30] = assay: Induction of cell cycle arrest in human NCI-H460 cells assessed as accumulation of cells at sub-G1 phase at 0.12 uM after 72 hrs by flow cytometry (reference value: 1.1%); assay type: functional
compound,measurement,setting,value
O=C(O)C=Cc1ccc(-c2ccc(OCC(=O)NO)c(C34CC5CC(CC(C5)C3)C4)c2)cc1,Activity,MM473 [1],14.1%
same,Activity,A2780 [2],78.9%
same,inhibition,[3],Active
same,Activity,[4],49.7%
same,inhibition in vivo at 50 mg/kg,NCI-H460 [5],61%
same,Activity,[6],0%
same,Activity,A2780 [7],33.3%
same,Activity,NCI-H460 [8],Active
same,inhibition,Mus musculus,Active
same,Activity,MM473 [9],Active
same,inhibition,[10],Active
same,Activity,NCI-H460 [11],16.3%
same,Activity,MM473 [12],62.9%
same,Activity,[13],37.8%
CC(Oc1ccc(-c2ccc(C=CC(=O)O)cc2)cc1C12CC3CC(CC(C3)C1)C2)C(=O)NO (stereo unspecified),Activity,NCI-H460 [14],7.8%
same,Activity,NCI-H460 [15],10.9%
same,Activity,A2780 [16],23%
same,Activity,MM473 [17],10.2%
same,Activity,NCI-H460 [18],Active
same,Activity,A2780 [19],Active
same,inhibition,[20],Active
same,Activity,NCI-H460 [21],13.2%
same,Activity,A2780 [22],86.2%
O=C(O)C=Cc1ccc(-c2ccc(O)c(C34CC5CC(CC(C5)C3)C4)c2)cc1,Activity,NCI-H460 [23],6.5%
same,Activity,[24],63.4%
same,Activity,[25],13.8%
same,inhibition in vivo at 20 mg/kg,[26],0%
same,inhibition in vivo at 20 mg/kg,NCI-H460 [27],64%
same,Activity,[28],0%
same,Activity,NCI-H460 [29],79.7%
same,Activity,NCI-H460 [30],12.4%
